Reference: ChEMBL document CHEMBL1926640, “Structure-based rational design of novel hit compounds for pyruvate dehydrogenase multienzyme complex E1 components from Escherichia coli” (Bioorg Med Chem, 2011)

Test: Inhibition of Escherichia coli PDHc-E1 expressed in Escherichia coli TB1 using sodium pyruvate as substrate after 3 mins by 2,6-DCIP reduction assay

IC50 [µM] | Compound
6.88 | Cc1ncc(Cn2cc(COc3ccc([N+](=O)[O-])cc3Cl)nn2)c(N)n1
8.8 | Cc1ncc(Cn2cc(COc3ccc([N+](=O)[O-])cc3)nn2)c(N)n1
15.1 | Cc1ncc(Cn2cc(COc3ccc(C(=O)O)cc3)nn2)c(N)n1
55.1 | Cc1ncc(Cn2cc(COc3ccccc3)nn2)c(N)n1
